pEC50: −log10 of the molar value.
Biological target: Human LPA1 (Homo sapiens, UniProt Q92633)
Experiment: Beta-Arrestin based assay for human LPA1R antagonists (PathHunter)
Type: cell-based
Parameters: host or cells: CHO
Conditions: CHO cells stably expressing ProLink tagged human LPA1R; agonist LPA 0.5 micromolar
Protocol: Beta-Arrestin Based Assays for Human LPA1R Antagonists and Agonists
A CHO cell line stably expressing the ProLink™ tagged human LPA1R was obtained from DiscoverX Inc, Fremont, Calif. In this system, β-Arrestin was fused to an N-terminal deletion mutant of β-galactosidase (termed the enzyme acceptor or EA), the human LPA1R was fused to a smaller (42 amino acids) weakly complementing fragment termed ProLink™. […] Cell handling and assays were performed according to protocols specified in the PathHunter® assays kits (DiscoverX, Fremont, Calif.). Assays were performed in quadruplicate in white 384 well plates. End point luminescence data were plotted and fit to a 4 parameter logistic function to obtain IC50 values. For antagonist assays, an […] concentration of agonist (LPA) equal to 0.5 micromolar was used.

Sequence of Human LPA1 (Q92633 whole entry): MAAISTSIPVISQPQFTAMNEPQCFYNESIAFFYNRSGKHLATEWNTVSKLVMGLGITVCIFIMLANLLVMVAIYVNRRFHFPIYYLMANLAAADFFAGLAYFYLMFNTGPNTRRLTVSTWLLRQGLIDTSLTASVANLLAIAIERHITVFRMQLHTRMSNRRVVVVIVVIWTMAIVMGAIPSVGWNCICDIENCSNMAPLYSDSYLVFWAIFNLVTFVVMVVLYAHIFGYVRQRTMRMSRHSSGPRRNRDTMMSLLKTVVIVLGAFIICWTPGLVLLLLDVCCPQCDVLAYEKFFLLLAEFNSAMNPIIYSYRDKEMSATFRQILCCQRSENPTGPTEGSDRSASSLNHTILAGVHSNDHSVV

SMILES	pEC50
Cc1ccc2oc(-c3ccc(-c4ccc(C5(C(=O)O)CC5)cc4)cc3)c(NC(=O)O[C@H](C)c3ccccc3Cl)c2c1 [Compound 53]	< 6.30
Cc1cc(-c2snc(C)c2NC(=O)O[C@H](C)c2ccccc2Cl)ccc1-c1ccc(C2(C(=O)O)CC2)cc1 [Compound 116]	> 7.30
O=C(Nc1ocnc1-c1ccc(-c2ccc(C3(C(=O)O)CC3)cc2)cc1)OCc1ccccc1 [Compound 148]	< 6.30
O=C(Nc1scnc1-c1ccc(-c2ccc(C3(C(=O)O)CC3)cc2)cc1)OCc1ccccc1 [Compound 108]	6.30 to 7.30
C[C@@H](OC(=O)Nc1c(-c2ccc(-c3ccc(C4(C(=O)O)CC4)cc3)cc2)oc2cnccc12)c1ccccc1 [Compound 150]	> 7.30
Cc1noc(-c2ccc(-c3ccc(N4CC[C@H](C(=O)O)C4)cc3)cc2)c1NC(=O)O[C@H](C)c1ccccc1 [Compound 132]	6.30 to 7.30
Cc1cc(-c2snc(C)c2NC(=O)O[C@H](C)c2ccccc2Cl)c(F)cc1-c1ccc(C2(C(=O)O)CC2)cc1 [Compound 121]	> 7.30
C[C@@H](OC(=O)Nc1ncoc1-c1ccc(-c2ccc(C3(C(=O)O)CC3)cc2)cc1)c1ccccc1 [Compound 143]	6.30 to 7.30
Cc1noc(-c2ccc(-c3ccc(C4(C(=O)O)CC4)cc3)cc2)c1NC(=O)OC1(c2ccccc2)CC1 [Compound 76]	6.30 to 7.30
Cc1noc(-c2ccc(-c3ccc4c(c3)CCCC4C(=O)O)cc2)c1NC(=O)O[C@H](C)c1ccccc1Cl (stereo partly shown) [Compound 23]	6.30 to 7.30
Cc1noc(-c2ccc(-c3ccc(N4CC[C@@H](C(=O)O)C4)cc3)cc2)c1NC(=O)O[C@H](C)c1ccccc1Cl [Compound 134]	6.30 to 7.30
Cc1cc(-c2snc(C)c2NC(=O)O[C@H](C)c2ccccc2Cl)c(C)cc1-c1ccc(C2(C(=O)O)CC2)cc1 [Compound 123]	6.30 to 7.30
Cc1nc(-c2ccc(-c3ccc(C4(C(=O)O)CC4)cc3)cc2)c(NC(=O)O[C@H](C)c2ccccc2)o1 [Compound 154]	6.30 to 7.30
Cc1nc(-c2ccc(-c3ccc(C4(C(=O)O)CC4)cc3)cc2)c(NC(=O)O[C@H](C)c2ccccc2Cl)o1 [Compound 155]	6.30 to 7.30
CCOC(=O)Cc1ccc(-c2ccc(-c3onc(C)c3NS(=O)(=O)Cc3ccccc3)cc2)cc1 [Compound 15]	< 6.30
Cc1nsc(C#Cc2ccc3cc(CC(=O)O)ccc3c2)c1NC(=O)O[C@H](C)c1ccccc1 [Compound 90]	6.30 to 7.30
Cc1noc(-c2ccc(-c3ccc(C4(C(=O)O)CNC4)cc3)cc2)c1NC(=O)O[C@H](C)c1ccccc1Cl [Compound 34]	< 6.30
Cc1nsc(-c2ccc(-c3ccc(C4(C(=O)O)CCCC4)cc3)cc2)c1NC(=O)O[C@H](C)c1ccccc1 [Compound 125]	6.30 to 7.30
Cc1nsc(-c2ccc(-c3ccc(C4(C(=O)O)CCC4)cc3)cc2)c1NC(=O)O[C@H](C)c1ccccc1 [Compound 127]	6.30 to 7.30

SMILES	pEC50
Cc1noc(-c2ccc(-c3ccc(N4CCC[C@H](C(=O)O)C4)cc3)cc2)c1NC(=O)O[C@H](C)c1ccccc1 [Compound 137]	6.30 to 7.30
Cc1nsc(-c2ccc(-c3ccc(C4(C(=O)O)CC4)cc3)cc2)c1NC(=O)OCc1ccc(F)cc1Cl [Compound 102]	6.30 to 7.30
Cc1nsc(-c2ccc(-c3ccc(C4(C(=O)O)CCCCC4)cc3)cc2)c1NC(=O)O[C@H](C)c1ccccc1 [Compound 126]	6.30 to 7.30
Cc1nsc(C#Cc2ccc3cc(CC(=O)O)ccc3c2)c1NC(=O)OCc1ccccc1 [Compound 91]	< 6.30
Cc1noc(C#Cc2ccc3cc(C4(C(=O)O)CC4)ccc3c2)c1NC(=O)O[C@H](C)c1ccccc1Cl [Compound 131]	> 7.30
Cc1nsc(C#Cc2ccc3cc(C4(C(=O)O)CC4)ccc3c2)c1NC(=O)O[C@H](C)c1ccccc1 [Compound 92]	> 7.30
Cc1cc(-c2snc(C)c2NC(=O)O[C@H](C)c2ccccc2Cl)c(Cl)cc1-c1ccc(C2(C(=O)O)CC2)cc1 [Compound 122]	> 7.30
Cc1noc(-c2ccc3cc(C#CC4(C(=O)O)CC4)ccc3c2)c1NC(=O)O[C@H](C)c1ccccc1Cl [Compound 141]	> 7.30
C[C@@H](OC(=O)Nc1c(-c2ccc(-c3ccc(CC(=O)O)cc3)cc2)oc2ccccc12)c1ccccc1Cl [Compound 31]	6.30 to 7.30
Cc1nsc(-c2ccc(-c3ccc(C4(C(=O)O)CC4)cc3)cc2)c1NC(=O)O[C@H](C)c1ccccn1 [Compound 84]	6.30 to 7.30
Cc1noc(-c2ccc(-c3ccc4c(c3)CCC4C(=O)O)cc2)c1NC(=O)O[C@H](C)c1ccccc1Cl (single isomer, unassigned) [Compound 26]	> 7.30
Cc1noc(-c2ccc(-c3ccc(C4(C(=O)O)CN(C)C4)cc3)cc2)c1NC(=O)O[C@H](C)c1ccccc1Cl [Compound 39]	6.30 to 7.30
Cc1nsc(-c2ccc(-c3ccc(C4(C(=O)O)CC4)cc3)cc2)c1NC(=O)OCc1cccc(Cl)c1 [Compound 97]	> 7.30
Cc1noc(-c2ccc(Nc3ccccc3C(=O)O)cc2)c1NC(=O)O[C@H](C)c1ccccc1Cl [Compound 22]	< 6.30
Cc1noc(-c2ccc(-c3ccc(C4(C(=O)O)CN(Cc5ccccc5)C4)cc3)cc2)c1NC(=O)O[C@H](C)c1ccccc1Cl [Compound 33]	> 7.30
Cc1noc(-c2ccc(-c3ccc(N4CC[C@H](C(=O)O)C4)cc3)cc2)c1NC(=O)O[C@H](C)c1ccccc1Cl [Compound 135]	6.30 to 7.30
C[C@@H](OC(=O)Nc1cnsc1-c1ccc(-c2ccc(C3(C(=O)O)CC3)cc2)cc1)c1ccccc1 [Compound 114]	> 7.30
Cc1nsc(-c2ccc(-c3ccc(C4(C(=O)O)CC4)cc3)cc2)c1NC(=O)OC(C)C [Compound 95]	< 6.30

Further lines, results first:

pEC50	SMILES
< 6.30	O=C(O)Cc1ccc(C2CCN(C(=O)CCNC(=O)OCc3ccccc3)CC2)cc1 [Compound 256]
> 7.30	Cc1nsc(-c2ccc(-c3ccc(C4(C(=O)O)CC4)c(Cl)c3)cc2)c1NC(=O)O[C@H](C)c1ccccc1Cl [Compound 191]
> 7.30	Cc1nsc(-c2ccc(-c3ccc(C4(C(=O)O)CC4)cc3)c(Cl)c2)c1NC(=O)O[C@H](C)c1ccccc1Cl [Compound 186]
< 6.30	Cc1nsc(-c2ccc(-c3ccc(C4(C(=O)OC5OC(C(=O)O)C(O)C(O)C5O)CC4)cc3)cc2)c1NC(=O)O[C@H](C)c1ccccc1 (stereo partly shown) [Compound 238]
> 7.30	Cc1nsc(-c2cc(F)c(-c3ccc(C4(C(=O)O)CC4)cc3)cc2Cl)c1NC(=O)O[C@H](C)c1ccccc1Cl [Compound 180]
> 7.30	CCn1ncc(-c2ccc(-c3ccc(C4(C(=O)O)CC4)cc3)cc2)c1NC(=O)O[C@H](C)c1ccccc1 [Compound 221]
> 7.30	C[C@@H](OC(=O)Nc1c(-c2ccc(-c3ccc(C4(C(=O)O)CC4)cc3)cc2F)cnn1C)c1ccccc1 [Compound 204]
< 6.30	Cc1nsc(-c2ccc(-c3ccc(C4(C(=O)O)CC4)cc3)c3c2CCC3)c1NC(=O)O[C@H](C)c1ccccc1 [Compound 239]
6.30 to 7.30	C[C@@H](OC(=O)Nc1snnc1-c1ccc(-c2ccc(C3(C(=O)O)CC3)cc2)cc1)c1ccccc1Cl [Compound 175]
6.30 to 7.30	C[C@@H](OC(=O)Nc1cncn1-c1ccc(-c2ccc(C3(C(=O)O)CC3)cc2)cc1)c1ccccc1Cl [Compound 164]
> 7.30	Cc1nsc(-c2ccc(-c3ccc(C4(C(=O)O)CC4)cc3)cc2)c1NC(=O)O[C@H](C)c1cccc(F)c1 [Compound 194]
> 7.30	Cc1noc(C#Cc2cc3sc(C4(C(=O)O)CC4)cc3s2)c1NC(=O)O[C@H](C)c1ccccc1 [Compound 255]
< 6.30	O=C(O)Cc1ccc(N2CCN(C(=O)CCCNC(=O)OCc3ccccc3)CC2)cc1 [Compound 270]
6.30 to 7.30	C[C@@H](OC(=O)Nc1c(-c2ccc(-c3ccc(C4(C(=O)O)CC4)cc3)cc2)ncn1C)c1ccccc1 [Compound 169]
< 6.30	C[C@@H](OC(=O)Nc1nncn1-c1ccc(-c2ccc(C3(C(=O)O)CC3)cc2)cc1)c1ccccc1Cl [Compound 159]
> 7.30	C[C@@H](OC(=O)Nc1c(-c2c(F)cc(-c3ccc(C4(C(=O)O)CC4)cc3)cc2F)cnn1C)c1ccccc1 [Compound 205]
< 6.30	Cc1nsc(-c2ccc(-c3ccc(C4(C(=O)O)CC4)cc3)cc2)c1NC(=O)O[C@@H](C)C1=C(Cl)CCC1 (single isomer, unassigned) [Compound 217]
> 7.30	C[C@@H](OC(=O)Nc1c(-c2cc(Cl)c(-c3ccc(C4(C(=O)O)CC4)cc3)cc2F)cnn1C)c1ccccc1Cl [Compound 202]
> 7.30	CC(C)n1ncc(-c2ccc(-c3ccc(C4(C(=O)O)CC4)cc3)cc2)c1NC(=O)O[C@H](C)c1ccccc1 [Compound 220]
< 6.30	CC(=O)Nc1ccnc(-c2ccc(-c3ccc(CC(=O)O)cc3)cc2)c1 [reference compound]
> 7.30	Cn1ncc(-c2ccc(-c3ccc(C4(C(=O)O)CC4)cc3)cc2)c1NC(=O)OCc1ccccc1 [Compound 172]
< 6.30	CCCOC(=O)NCC(=O)c1ccc(-c2ccc(CC(=O)O)cc2)cc1 [reference compound]
< 6.30	Cc1ccc2c(NC(=O)O[C@H](C)c3ccccc3)c(-c3ccc(-c4ccc(C5(C(=O)O)CC5)cc4)cc3)sc2n1 [Compound 214]
> 7.30	Cc1noc(-c2ccc3c(c2)CCc2cc(C4(C(=O)O)CC4)ccc2-3)c1NC(=O)O[C@H](C)c1ccccc1Cl [Compound 248]
6.30 to 7.30	Cc1noc(-c2nc3cc4oc(C5(C(=O)O)CC5)nc4cc3o2)c1NC(=O)O[C@H](C)c1ccccc1 [Compound 178]
> 7.30	Cc1nsc(-c2ccc(-c3ccc(C4(C(=O)O)CC4)cc3)cc2F)c1NC(=O)O[C@H](C)c1ccccc1 [Compound 184]
6.30 to 7.30	C[C@@H](OC(=O)Nc1snnc1-c1ccc(-c2ccc(C3(C(=O)O)CC3)cc2)cc1)c1ccccc1 [Compound 174]

Reference: patent US8975235B2, “Lysophosphatidic acid receptor antagonists” (InterMune, Inc., priority 2011, dated 2015)
